Data on three compounds can be found in US6900224B2, “Antimicrobial quinolones, their compositions and uses” (The Procter & Gamble Company, priority 2002, dated 2005).

The subject of one data set is Escherichia coli. The experiment in a line: treatment of human subject with urinary tract infection, enteric coated oral tablets. The format is in vivo. Conditions: two enteric coated tablets (350 mg each) orally every 8 hours for 4 days. An excerpt:
An enteric coated antimicrobial composition for oral administration, according to this invention, is made comprising the following core tablet:
The components are admixed into a bulk mixture. Compressed tablets are formed, using tabletting methods known in the art. The tablet is then coated with a suspension of methacrylic acid/methacrylic acid ester polymer in isopropanol/acetone. A human subject, having a urinary tract infection with Escherichia coli present, is orally administered two of the tablets, every 8 hours, for 4 days.

For data set [1] the following is noted: reported side effect; cited from earlier work.
The test system of a further data set is Streptococcus pneumoniae. Conditions: human, lower respiratory tract infection with Streptococcus pneumoniae; 30 mg/mL suspension, approx. 2.0 mL intramuscular twice daily for approx. 14 days; after 4 days. As for the experimental part:
An antimicrobial composition for parenteral administration, according to this invention, is made comprising:
The above ingredients are mixed, forming a suspension. Approximately 2.0 mL of the suspension is systemically administered, via intramuscular injection, to a human subject suffering from a lower respiratory tract infection, with Streptococcus pneumoniae present. This dosage is repeated twice daily, for approximately 14 days.

Turning to “7-[7-amino-8R-methyl-5-azaspiro[2.5]-octanyl]-1-cyclopropyl-1,4-dihydro-6-fluoro-8-methoxy-4-oxo-3-quinolinecarboxylic acid hydrochloride [Example 5]”, the “symptoms of the disease / eradication of the pathogen” value in the data set on Escherichia coli is reported as “Symptoms of the disease then subside”.

As for `COc1c(N2CCNC(C)C2)c(F)cc2c(=O)c(C(=O)O)cn(C3CC3)c12` (racemic) [gatifloxacin, (±)-1-cyclopropyl-6-fluoro-1,4-dihydro-8-methoxy-7-(3-methyl-1-piperazinyl)-4-oxo-3-quinoline carboxylic acid], the clastogenicity result in data set [1] was “exhibit clastogenicity”.

As to `CC[C@@H]1[C@H](N)CN(c2nc3c(cc2F)c(=O)c(C(=O)O)cn3C2CC2)C[C@@H]1C.Cl` [Example 12, 7-[3S-amino-4S-ethyl-5R-methyl-piperidinyl]-1-Cyclopropyl-1,4-dihydro-6-fluoro-4-oxo-1,8-naphthyridine-3-carboxylic acid hydrochloride], the “symptoms of the disease / eradication of the pathogen” value with Streptococcus pneumoniae is recorded as “symptoms of the disease subside”.
